Entries after “also recorded” stand apart in the source; their conditions may differ.
Assays:
Type in all cases: in vivo, C57BL/6 (B6) mice
P. aeruginosa KEI 1025 = assay: Quantification of viable bacteria (plate count), KEI 1025 infection; settings: vs PBS; for bacterial load (plate count): post treatment: subconj. 6 hours p.i. + IP 1 and 3 days p.i.; for bacterial load in the corneas (plate count): pretreatment subconj. + IP
Experimental: (§1) The left eyes of B6 mice (n=5/group/time) were injected with 5 μl of 2 μg/μl glycyrrhizin (GLY) (Sigma-Aldrich, St. Louis, Mo.) or PBS (control) subconjunctivally, one day before infection. Similar treatment was done using carbenoxolone (CBX) (Sigma-Aldrich, St. Louis, Mo.). All mice were injected intraperitoneally (IP) at 1 and 3 days p.i. with 100 μl of GLY (2 μg/μl) or CBX (1 μg/μl). PBS served as control for all these experiments. In a separate similar experiment mice were treated one day before infection with GLY subconjunctivally and injected intraperitoneally (i.p.) with GLY plus recombinant (r) HMGB1 (1 μg/100 μl) or GLY plus PBS. IP injections were similarly given at 1 and 3 days p.i. In an additional experiment, KEI 1025 infected B6 mice were treated with 5 μl of 2 μg/μl GLY subconjunctivally at 6 hours p.i. and injected intraperitoneally at 1 and 3 days p.i. with 100 μl of GLY (2 μg/μl).
Mice were sacrificed at 3 and 5 days p.i. and KEI 1025 or ATCC strain 19660 infected corneas from GLY, CBX or PBS (or GLY+/−rHMGB1) treated B6 mice were harvested (n=5/group/time). Each cornea was homogenized in 1 ml of sterile saline (0.85% NaCl, pH 7.4) containing 0.25% BSA. A 100 μl of the corneal homogenate was serially diluted (1:10) in sterile saline containing 0.25% BSA. Selected dilutions were plated in triplicate on selective culture medium (Difco™ Pseudomonas Isolation Agar, BD Biosciences, Inc., Franklin Lakes, N.J.). Plates were incubated overnight at 37° C. and viable bacteria manually counted. Results are reported as log10 CFU/cornea±SEM.

[1] = system: P. aeruginosa KEI 1025 infected cornea; assay: Ocular response to bacterial infection (clinical score, slit lamp), KEI 1025 keratitis; settings: for opacity, slit lamp photographs / clinical scores: vs PBS
Source text: (§2) P. aeruginosa strains, KEI 1025, a non-cytotoxic clinical isolate strain expressing exoT and exoS, and not expressing exoU, described in Estrellas P S, Jr., et al., Curr Eye Res. 2000; 20:157-165 (obtained from Kresge Eye Institute, Detroit, Mich.), and a cytotoxic strain, 19660, expressing exoU, described in Finck-Barbancon V, et al., Mol Microbiol. 1997; 25:547-557; and Fleiszig S M, et al., Infect Immun. 1997; 65:579-586 (obtained from American Type Culture Collection, ATCC, Manassas, Va.), were grown in peptone tryptic soy broth (PTSB) medium in a rotary shaker water bath at 37° C. and 150 rpm for 18 h to an optical density (measured at 540 nm) between 1.3-1.8. Bacterial cultures were pelleted by centrifugation at 5,500 g for 10 min. Pellets were washed once with sterile saline, re-centrifuged, re-suspended and diluted in sterile saline. Anesthetized (using anhydrous ethyl ether) mice were placed beneath a stereoscopic microscope at 40× magnification. The left cornea was scarified with three 1-mm incisions using a sterile 25^5/8 gauge needle. The wounded corneal surface was topically treated with 5 μl containing 1×10^7 CFU/μl (KEI 1025) or 1×10^6 CFU/μl (ATCC strain 19660) of the P. aeruginosa suspension.
(§3) An established corneal disease grading scale, described in detail in Hazlett L D, et al., Invest Ophthalmol Vis Sci. 1987; 28:1978-1985, was used to assign a clinical score value to each infected eye at 1, 3 and 5 days post infection (p.i.). Clinical scores were designated as: 0=clear or slight opacity, partially or fully covering the pupil; +1=slight opacity, fully covering the anterior segment; +2=dense opacity, partially or fully covering the pupil; +3=dense opacity, covering the entire anterior segment; and +4=corneal perforation or phthisis. Clinical scores were used to statistically compare disease severity and were accompanied by photographs using a slit lamp (5 days p.i.) to confirm and illustrate the response.
as §1

[2] = system: P. aeruginosa ATCC strain 19660 infected cornea; assay: Ocular response to bacterial infection (clinical score, slit lamp), strain 19660 keratitis; settings: pretreatment subconj. + IP, vs PBS
Source text: as §2, §3
as §1, with “In an additional experiment, KEI 1025 infected B6 mice were treated with 5 μl of 2 μg/μl GLY subconjunctivally at 6 hours p.i. and injected intraperitoneally at 1 and 3 days p.i. with 100 μl of GLY (2 μg/μl).” left out

[3] = system: neutrophils in the cornea, P. aeruginosa ATCC strain 19660; assay: Myeloperoxidase (MPO) assay, strain 19660 infection; settings: vs PBS
Experimental: as §1
This assay was used to quantitate neutrophils in the cornea of GLY and PBS treated mice (n=5/group/time) infected with KEI 1025 or ATCC strain 19660. Individual corneas were removed at 3 and 5 days p.i. and homogenized in 1.0 ml of 50 mM phosphate buffer (pH 6.0) containing 0.5% HTAB. […] The change in absorbency was monitored at 460 nm for 5 min at 30 sec intervals. The slope of the line was determined for each sample and used to calculate units of MPO/cornea. […]

[4] = subconj. 1 day before infection + IP 1 and 3 days p.i., 5 days p.i.

With `CC1(C)[C@@H](O[C@H]2O[C@H](C(=O)O)[C@@H](O)[C@H](O)[C@H]2O[C@@H]2O[C@H](C(=O)O)[C@@H](O)[C@H](O)[C@H]2O)CC[C@]2(C)[C@H]3C(=O)C=C4[C@@H]5C[C@@](C)(C(=O)O)CC[C@]5(C)CC[C@@]4(C)[C@]3(C)CC[C@@H]12` [GLY, glycyrrhizin] the “bacterial load (plate count)” value (P. aeruginosa KEI 1025; 3 days p.i.) was “reduced significantly”, the “bacterial load (plate count)” value (P. aeruginosa KEI 1025; 5 days p.i.) was “reduced significantly” and the “bacterial load in the corneas (plate count)” value (P. aeruginosa KEI 1025; 3 days p.i.) was “reduced”. For the same molecule, the “bacterial load in the corneas (plate count)” value (P. aeruginosa KEI 1025; 5 days p.i.) was “reduced”, the “opacity, slit lamp photographs” value ([1]; post treatment: subconj. 6 hours p.i. + IP 1 and 3 days p.i.) was “decreased opacity” and the clinical scores ([1]; post treatment: subconj. 6 hours p.i. + IP 1 and 3 days p.i., 1 day p.i.) was “seen only at 3 and 5 days p.i”. For the same molecule, the clinical scores ([1]; post treatment: subconj. 6 hours p.i. + IP 1 and 3 days p.i., 3 days p.i.) was “Reduced clinical scores”, the clinical scores ([1]; post treatment: subconj. 6 hours p.i. + IP 1 and 3 days p.i., 5 days p.i.) was “Reduced clinical scores” and the “infiltrate, slit lamp photographs” value ([1]; pretreatment, 5 days p.i., GLY compared with CBX treated eyes) was “less infiltrate”. For the same molecule, the clinical scores ([1]; subconj. 1 day before infection + IP 1 and 3 days p.i., 1 day p.i.) was “significantly less corneal disease with lower clinical scores; also recorded: reduced significantly”, the clinical scores ([1]; subconj. 1 day before infection + IP 1 and 3 days p.i., 3 days p.i.) was “significantly less corneal disease with lower clinical scores; also recorded: reduced significantly” and the clinical scores [1, 4] was “significantly less corneal disease with lower clinical scores; also recorded: reduced significantly”. For the same molecule, the “opacity, slit lamp photographs” value [1, 4] was “reduced opacity”, the clinical scores ([2]; 1 day p.i.) was “not at 1 day p.i” and the clinical scores ([2]; 3 days p.i.) was “reduced clinical scores that were significant”. The clinical scores ([2]; 5 days p.i.) was “reduced clinical scores that were significant”, the “disease/opacity, slit lamp photographs” value ([2]; 5 days p.i.) was “less disease, reduced opacity” and the “neutrophils in the cornea (MPO assay)” value ([3]; 3 days p.i.) was “significant decrease in neutrophils”. The “neutrophils in the cornea (MPO assay)” value ([3]; 5 days p.i.) was “significant decrease in neutrophils”.

From US10500222B2, “Compositions and methods relating to treatment of infection” (Wayne State University, priority 2015, dated 2019)
